Experimental data: patent US20210395210A1, “INHIBITION OF BACTERIAL CHAPERONIN SYSTEMS” (THE TRUSTEES OF INDIANA UNIVERSITY, priority 2018, published 2021)
Like-named read-outs stand apart in the source and are kept apart here.

Key:
native Rho (rhodanese) = molecular target: T1, native Rho (rhodanese) (Bos taurus, UniProt P00586); assay: Counter-screen for inhibition of native rhodanese enzymatic activity; assay type: biochemical; conditions: for log(IC50) Native Rho Reporter: log of IC50 (μM scale), with standard deviation
T1 construct: purchased Roche (so in the source) R1756
T1 sequence (P00586 1-297): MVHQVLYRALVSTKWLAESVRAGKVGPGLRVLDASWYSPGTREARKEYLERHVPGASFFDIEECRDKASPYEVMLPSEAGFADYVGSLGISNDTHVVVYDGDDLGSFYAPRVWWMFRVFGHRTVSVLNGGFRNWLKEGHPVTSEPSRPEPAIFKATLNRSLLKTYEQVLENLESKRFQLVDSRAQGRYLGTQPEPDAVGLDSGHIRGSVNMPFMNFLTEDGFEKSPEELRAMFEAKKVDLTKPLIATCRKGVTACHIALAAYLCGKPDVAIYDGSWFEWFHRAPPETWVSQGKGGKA
Method: Reagent Preparations & Assay Protocol: Reagents were identical to those used in the GroEUES-dRho refolding assay described above; however, the assay protocol differed in the sequence of compound addition to the wells. Compounds were pin-transferred after the 60 minute incubation for the refolding cycle, but prior to the addition of the thiocyanate enzymatic assay stock. Thus, the refolding reactions were allowed to proceed for 60 min at 37° C. in the absence of test compounds, but the enzymatic activity of the refolded rhodanese reporter enzyme was monitored in the presence of test compounds (inhibitor concentration range during the enzymatic reporter reaction is 100 µM to 46 nM-3-fold dilutions). IC50 values for the rhodenase reporter enzyme were determined as described above. Results presented represent the averages of IC50 values obtained from at least quadriplicate (duplicate of duplicate) replicates.

in vitro [1] = conditions: human
Method: (§1) HEK 293 cells were maintained in MEM medium (Corning Cellgro, 10-009 CV) supplemented with 10% FBS (Sigma, F2242). […] Cells at 80% confluence were harvested and diluted in growth medium, then 45 μL of the THLE-3 cells (1,500 cells/well) or HEK 293 cells (1,500 cells/well) were dispensed per well, and plates were sealed with “Breathe Easy” oxygen permeable membranes (Diversified Biotech) and incubated at 37° C., 5% CO2, for 24 h.

in vitro [2] = conditions: human; remark: listed apart in the source
Method: as §1

E. coli GroEL/ES = molecular target: T2, E. coli GroEL/ES (Escherichia coli, UniProt P0A6F5); assay: GroEL/ES-mediated dMDH refolding assay; assay type: biochemical; conditions: for log(IC50) GroEL/ES-dMDH Refolding: log of IC50 (μM scale), with standard deviation
T2 construct: made in house; host or cells: GroEL in E. coli DH5α; GroES in E. coli BL21 (DE3)
Method: Reagent preparation: For these assays, four primary reagent stocks were prepared: 1) GroEUES-dMDH or HSP60/10-dMDH binary complex stock; 2) ATP initiation stock; 3) EDTA quench stock; 4) MDH enzymatic assay stock. Denatured MDH (dMDH) was prepared by 2-fold dilution of MDH (5 mg/ml, soluble pig heart MDH from Roche, product #10127248001) with denaturant buffer (7 M guanidine-HCl, 200 mM Tris, pH 7.4, and 50 mM DTT). MDH was completely denatured by incubating at room temperature for 45 min. The binary complex solutions were prepared by slowly adding the dMDH stock to a stirring stock with GroEL (or HSP60) in folding buffer (50 mM Tris-HCl, pH 7.4, 50 mM KCl, 10 mM MgCl2, and 1 mM DTT), followed by addition of GroES (or HSP10). The binary complex stocks were prepared immediately prior to dispensing into the assay plates and had final protein concentrations of 83.3 nM GroEL (Mr 800 kDa) or HSP60 (Mr 400 kDa), 100 nM GroES or HSP10 (Mr 70 kDa), and 20 nM dMDH in folding buffer. For the ATP initiation stock, ATP solid was diluted into folding buffer to a final concentration of 2.5 mM. Quench solution contained 600 mM EDTA (pH 8.0). The MDH enzymatic assay stock consisted of 20 mM sodium mesoxalate and 2.4 mM NADH in reaction buffer (50 mM Tris-HCl, pH 7.4, 50 mM KCl, and 1 mM DTT).
Assay Protocol: First, 30 μL aliquots of the GroEL/ES-dMDH or HSP60/10-dMDH binary complex stocks were dispensed into clear, 384-well polystyrene plates. […] The chaperonin-mediated refolding cycles were initiated by addition of 20 μL of ATP stock (reagent concentrations during refolding cycle: 50 nM GroEL or HSP60, 60 nM GroES or HSP10, 12 nM dMDH, 1 mM ATP, and compounds of 100 μM to 46 nM, 3-fold dilution series). The refolding reactions were incubated at 37° C. […] Next, the assay was quenched by addition of 10 μL of the EDTA to final concentration of 100 mM. […] A340 nm measurements were recorded at 0.5 minutes (start point) and at successive time points until the amount of NADH consumed reached ˜90% (end point, generally between 20-35 minutes). The differences between the start and end point A340 values were used to calculate the % inhibition of the GroEL/ES or HSP60/10 machinery by the compounds. […] Results presented represent the averages of IC50 values obtained from at least quadriplicate (duplicate of duplicate) replicates.
After generating the compound library, we next employed a series of well-established biochemical assays to evaluate compound inhibitory effects against the GroEUES chaperonin system (See FIG. 6 and FIG. 7). We used E. coli GroEUES as the surrogate chaperonin system for refolding of the reporter enzymes malate dehydrogenase (MDH) and rhodanese (Rho). Briefly, binary complexes are formed between GroEL and denatured MDH or Rho, which are then refolded to their native states upon addition of ATP and the GroES co-chaperonin. Enzymatic activities of refolded native MDH or Rho act as coupled reporters of GroEUES refolding functions since in the presence of chaperonin inhibitors, no functional reporter enzymes are generated.

[3] = read-out: Biochemical Assay IC50 Native Rho Reporter
[4] = read-out: Biochemical Assay IC50 GroEL/ES-dMDH refolding

T2 sequence (P0A6F5 2-548): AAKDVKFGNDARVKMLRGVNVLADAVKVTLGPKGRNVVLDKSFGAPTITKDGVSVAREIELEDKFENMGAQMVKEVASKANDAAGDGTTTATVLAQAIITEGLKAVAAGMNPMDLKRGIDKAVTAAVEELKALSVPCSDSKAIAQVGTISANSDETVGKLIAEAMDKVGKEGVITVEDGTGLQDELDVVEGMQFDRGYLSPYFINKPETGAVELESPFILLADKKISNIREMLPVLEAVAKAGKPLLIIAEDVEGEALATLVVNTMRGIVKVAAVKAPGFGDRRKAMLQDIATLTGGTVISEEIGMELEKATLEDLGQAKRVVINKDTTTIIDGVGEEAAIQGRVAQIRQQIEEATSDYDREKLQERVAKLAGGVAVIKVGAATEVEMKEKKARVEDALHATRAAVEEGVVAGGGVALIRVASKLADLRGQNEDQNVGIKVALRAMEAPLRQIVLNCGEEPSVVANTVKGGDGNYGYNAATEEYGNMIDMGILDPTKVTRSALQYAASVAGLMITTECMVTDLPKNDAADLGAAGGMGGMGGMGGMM

Structure (SMILES) | log(IC50) Native Rho Reporter (native Rho (rhodanese)) | IC50 (native Rho (rhodanese); [3]) [µM] | CC50 at 48 h (in vitro [1]) [µM] | CC50 at 48 h (in vitro [2]) [µM] | IC50 (E. coli GroEL/ES) [µM] | log(IC50) GroEL/ES-dMDH Refolding (E. coli GroEL/ES) | CC50 at 48 h (in vitro [2]; HEK 293 kidney cells) [µM] | inhibition in the GroEL/ES-mediated refolding assays (in words) (E. coli GroEL/ES; dMDH and dRho refolding assays) | IC50 (E. coli GroEL/ES; [4]) [µM] | CC50 at 48 h (in vitro [1]; THLE-3 liver cells) [µM] | IC50 (native Rho (rhodanese)) [µM]
COc1ccc(Br)cc1C(=O)Nc1cccc(Cl)c1 [Compound 39, 5-Bromo-N-(3-chlorophenyl)-2-methoxybenzamide] | >2 | > 100 | 93.3 | > 100 | > 100 | >2 |  |  |  |  | 
O=C(Nc1ccc(Sc2nc3ccccc3s2)c(Cl)c1)c1cccc(Br)c1 [Compound 18, N-(4-(Benzo[d]thiazol-2-ylthio)-3-chlorophenyl)-3-bromobenzamide] |  | > 100 | 87.1 | > 100 | > 100 |  |  |  |  |  | 
COc1c(Br)cccc1C(=O)Nc1cccc(Cl)c1 [Compound 38] | >2 | > 100 | > 100 | > 100 | > 100 | >2 |  |  |  |  | 
Cc1cc(C(C#N)c2ccc(Cl)cc2)c(Cl)cc1NC(=O)c1cc(I)cc(I)c1O (centres unmarked) [Closantel, closantel, reference compound] | >2 | > 100 | 52.5 |  | 2.24 |  | 75.9 | potent GroEUES inhibitors | 2.2 |  | 
COc1c(Br)cc(Br)cc1C(=O)Nc1ccc(Sc2nc3ccccc3s2)cc1 [Compound 33, N-(4-(Benzo[d]thiazol-2-ylthio)phenyl)-3,5-dibromo-2-methoxybenzamide] |  | > 100 | > 100 | > 100 | > 100 |  |  |  |  |  | 
COc1ccc(Br)cc1C(=O)Nc1ccc(Sc2nc3ccccc3s2)c(Cl)c1 [Compound 31, N-(4-(Benzo[d]thiazol-2-ylthio)-3-chlorophenyl)-5-bromo-2-methoxybenzamide] |  | > 100 | > 100 | > 100 | > 100 |  |  |  |  |  | 
O=C(Nc1ccccc1)c1cc(Br)cc(Br)c1O [Compound 13, 3,5-Dibromo-2-hydroxy-N-phenylbenzamide] | >2 | > 100 |  | 33.9 |  | 1.79 ± 0.10 |  |  | 61 | 25.1 | 
O=C(Nc1ccc(Sc2nc3ccccc3s2)cc1)c1cc(Br)cc(Br)c1 [Compound 20, N-(4-(Benzo[d]thiazol-2-ylthio)phenyl)-3,5-dibromobenzamide] |  | > 100 | > 100 | > 100 | > 100 |  |  |  |  |  | 
O=C(Nc1ccccc1)c1ccccc1O [Compound 16, 2-Hydroxy-N-phenylbenzamide] | >2 |  | 67.6 | > 100 |  | >2 |  |  | > 100 |  | > 100
COc1ccc(Br)cc1C(=O)Nc1ccccc1 [Compound 43, 5-Bromo-2-methoxy-N-phenylbenzamide] | >2 | > 100 | > 100 | > 100 | > 100 | >2 |  |  |  |  | 
